Entries after “also recorded” stand apart in the source; their conditions may differ.
Test system: mice with trigeminal nerve injury
Assay: Light/dark place preference test (anxiety-like behavior)
Type: in vivo, mouse
Conditions: nerve-injured mice, weeks 6-9 post surgery
Protocol: Anxiety-related behaviors were assessed in a manner typical in the literature—i.e., once at the end in week 8 since anxiety develops only in mice 6-8 weeks after persisting nerve injury (e.g., Lyons et al., Neuroscience 2015 Jun. 4; 295:126-138). The effects of HDACi on chronic craniofacial pain-related behaviors were assessed using light/dark place preference test and zero maze.
Animals were exposed to acoustic startle (5 minutes) immediately prior to placement in the light/dark place preference box as in a previous study (Lyons et al., Neuroscience 2015 Jun. 4; 295:126-138). Mils acoustic startle stress just prior to the test induces panic anxiety-like behavior with increased time and entries in the open arms compared to controls (de Paula HMG, Hoshino K, Behav Brain Res 2003 Dec. 17; 147(1-2):157-162; de Paula HMG, Hoshino K, Physiol Behav 2004 January; 80(4):459-464; Kontinen et al., Pain 1999 March;80(1-2):341-346). In the light/dark box place preference task (total time 10 minutes) anxiety-like behaviors were recorded as: (i) total time spent in the light area, (ii) number of entries into the light area, (iii) number of rearing events/exploratory behavior, (iv) latency of the first transition into the light chamber, and (v) latency of first re-entry (transition) back into the dark chamber.

Compound: Cc1cc(C)cc(C(=O)NOCCCCCC(=O)NO)c1 [LMK235, N-[[6-(Hydroxyamino)-6-oxohexyl]oxy]-3,5-dimethyl-benzamide]
- anxiety-like behaviors, light/dark box test: reduction of anxiety measures; also recorded: inhibited the development of anxiety-like behaviors

Reference: patent US20250345295A1, “LMK235 COMPOSITIONS AND METHODS” (UNM Rainforest Innovations, priority 2024, published 2025)
